Reference: patent publication US7230131B2, “Carnitine-magnesium hydroxycitrate” (Lonza AG, priority 2000, dated 2007)
Read-outs that look alike come from different tables or passages of the source.

How the values were obtained:
[1] = Hygroscopicity test: gravimetric moisture uptake on storage at 56% relative humidity, 25° C.; type: physicochemical; details: for weight gain (moisture uptake from the air): 25° C., granulated <0.8 mm, previously dried over phosphorus pentoxide, based on total sample weight, Citrate; for moisture uptake: previously dried to constant weight
Excerpt: In a preferred embodiment, L-carnitine, magnesium hydroxide and citric acid are mixed in stoichiometric amounts, i.e. in a molar ratio of approximately 1:1:1. The types of these substances are preferably sufficiently pure, i.e. approved for the manufacture of food products or the preparation of pharmaceuticals, as are described, for example, in the European Pharmacopoeia. Anhydrous types are expediently used. To avoid an unwanted salt loading, the pure L-carnitine is preferably added to the mixture as neutral […] salt. Compared with previous methods of preparation, the hygroscopicity of the complex salt L-carnitine-magnesium citrate prepared in this way is reduced further. For example, the moisture uptake, determined by gravimetry in the way familiar to the skilled worker, of solid carnitine-Mg citrate prepared by the method of the invention and previously dried to constant weight under oil-pump vacuum or over phosphorus pentoxide is not more than 7% by weight after 48 h at 56% relative humidity (rH). This figure is not exceeded even after storage for 330 h. Based on the amount of carnitine or carnitine derivative present in the mixture, referred to within the scope of the invention as carnitine content based on free base, this corresponds to a moisture uptake of not more than 40% by weight. It is preferred for at least 80% of the carnitine-Mg citrate, based on the carnitine content in the mixture, to be in the form of complex salt in the mixture of the invention.
The product mixtures from example 1 and 2 granulated to a particle size of <0.8 mm using a FREEWIT screening granulator are stored at a relative humidity of 56% at 25° C. under constant test conditions for the stated times. The sample was previously dried to constant weight over phosphorus pentoxide. The moisture uptake from the air is determined by gravimetry. The weight gain is stated in percent based on the total weight of the sample.

[2] = Weight gain of previously dried mixture under standard conditions; type: physicochemical; details: after 24 h under standard conditions
Protocol: The weight gain of the mixture of the invention which had previously been dried was, after 24 h under standard conditions, 0.82% by weight. At a relative humidity of 56%, the water uptake of the mixture determined by gravimetry was ≦10% by weight after 30 h, corresponding to about 30% by weight based on the carnitine content of the mixture.

[3] = Storage stability in relation to rearrangement of HCA to the lactone, standard test conditions; type: physicochemical; details: compared with known HCA salts; standard test conditions customary in the pharmaceutical sector
Excerpt: The present invention further relates to carnitine-magnesium hydroxycitrate. This is a salt of low hygroscopicity and can be prepared by the present method through mixing magnesium hydroxide, hydroxycitric acid and carnitine or alkanoyl carnitine in the molar ratio 1:1:1. It is a neutral salt in the stoichiometric composition, in relation to the charge distribution and the ionizable functional groups. […] This involves a synergistic effect of the mixture in the form of a complex salt. Without wishing to be bound to the theory, it is possible that this effect is brought about by a better bioavailability of the complex salt. HCA is prone to spontaneous lactonization in aqueous solution and in the gastrointestinal tract. The complexation with Mg before preparation of a solution might have a stabilizing effect in relation to the unwanted rearrangement of the lactone and thus bring about much greater activity in cooperation with carnitine. […] It is also possible that a previously unrecognized stimulating effect in particular of magnesium, in the sense of that stated above concerning the mechanism of action of carnitine and hydroxycitrate, is involved. Allosterically regulated enzymes are often regulated by various factors such as, for example, also Mg cations. Magnesium is moreover an important cofactor for various enzymes or constituent of the holo enzyme. […]

[4] = relative humidity 56%, storage for 1 week; cited from earlier work
citrate lyase = target: T1, citrate lyase (Homo sapiens, UniProt P53396); details: cited from earlier work
T1 sequence (P53396 1-1101): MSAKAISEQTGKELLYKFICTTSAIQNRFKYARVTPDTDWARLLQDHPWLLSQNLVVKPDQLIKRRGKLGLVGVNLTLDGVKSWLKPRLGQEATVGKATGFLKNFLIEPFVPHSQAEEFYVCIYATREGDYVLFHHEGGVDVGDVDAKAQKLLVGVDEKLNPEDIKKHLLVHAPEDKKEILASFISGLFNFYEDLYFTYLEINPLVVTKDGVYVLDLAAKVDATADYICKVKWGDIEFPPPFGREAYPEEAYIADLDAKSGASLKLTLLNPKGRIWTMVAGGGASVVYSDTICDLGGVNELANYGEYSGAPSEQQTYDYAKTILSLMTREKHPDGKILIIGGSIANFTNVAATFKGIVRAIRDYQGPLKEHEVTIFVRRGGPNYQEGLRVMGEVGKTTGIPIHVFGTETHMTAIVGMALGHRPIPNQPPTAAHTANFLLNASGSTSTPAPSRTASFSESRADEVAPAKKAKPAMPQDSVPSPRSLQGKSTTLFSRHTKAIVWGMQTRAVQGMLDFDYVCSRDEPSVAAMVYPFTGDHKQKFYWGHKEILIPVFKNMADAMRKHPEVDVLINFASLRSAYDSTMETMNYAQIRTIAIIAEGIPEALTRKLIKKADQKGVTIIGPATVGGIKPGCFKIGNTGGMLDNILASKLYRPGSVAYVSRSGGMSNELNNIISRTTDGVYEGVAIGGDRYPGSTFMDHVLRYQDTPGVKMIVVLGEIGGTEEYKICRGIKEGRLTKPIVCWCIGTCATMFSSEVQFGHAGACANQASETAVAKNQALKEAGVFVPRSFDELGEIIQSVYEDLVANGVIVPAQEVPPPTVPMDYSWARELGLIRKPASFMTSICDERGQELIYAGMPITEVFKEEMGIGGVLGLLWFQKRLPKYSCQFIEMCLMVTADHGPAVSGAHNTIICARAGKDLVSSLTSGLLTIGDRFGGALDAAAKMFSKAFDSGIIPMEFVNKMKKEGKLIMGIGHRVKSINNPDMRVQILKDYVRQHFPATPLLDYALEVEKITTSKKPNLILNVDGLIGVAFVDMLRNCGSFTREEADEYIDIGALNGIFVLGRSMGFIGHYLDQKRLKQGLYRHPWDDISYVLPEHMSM

[5] = storage time 4 h, 56% relative humidity
[6] = storage time 8 h, 56% relative humidity
[7] = storage time 24 h, 56% relative humidity
[8] = storage time 36 h, 56% relative humidity
[9] = storage time 48 h, 56% relative humidity
[10] = storage time 336 h, 56% relative humidity

Molecule: L-Carnitine-Magnesium (−)-Hydroxycitrate [Example 4]
- water uptake based on the carnitine content of the mixture ([1]; after 30 h at relative humidity 56%): about 30 % by weight
- water uptake ([1]; after 30 h at relative humidity 56%, gravimetry): ≤ 10 % by weight
- weight gain [2]: 0.82 % by weight
- storage stability in relation to rearrangement of HCA to the lactone [3]: improved storage stability

Molecule: C[N+](C)(C)C[C@H](O)CC(=O)[O-].O=C([O-])CC(O)(CC(=O)[O-])C(=O)[O-].O=C([O-])CC(O)(CC(=O)[O-])C(=O)[O-].[Mg+2].[Mg+2].[Mg+2] [example 2, L-Carnitine-Magnesium Citrate]
- weight gain (moisture uptake from the air) [1, 5]: 2.7 % by weight
- weight gain (moisture uptake from the air) [1, 6]: 3.0 % by weight
- weight gain (moisture uptake from the air) [1, 7]: 5.4 % by weight
- weight gain (moisture uptake from the air) [1, 8]: 5.5 % by weight
- weight gain (moisture uptake from the air) [1, 9]: 6.4 % by weight
- weight gain (moisture uptake from the air) [1, 10]: 6.5 % by weight

Molecule: C[N+](C)(C)C[C@H](O)CC(=O)[O-].O=C([O-])CC(O)(CC(=O)[O-])C(=O)[O-].O=C([O-])CC(O)(CC(=O)[O-])C(=O)[O-].[Mg+2].[Mg+2].[Mg+2] [reference, L-carnitine-magnesium citrate, reference compound]
- water uptake [4]: 21 % by weight
- weight gain (moisture uptake from the air) [1, 5]: 5.1 % by weight
- weight gain (moisture uptake from the air) [1, 6]: 9.1 % by weight
- weight gain (moisture uptake from the air) [1, 7]: 18.1 % by weight
- weight gain (moisture uptake from the air) [1, 8]: 17.6 % by weight
- weight gain (moisture uptake from the air) [1, 9]: 20.4 % by weight
- weight gain (moisture uptake from the air) [1, 10]: 15.6 % by weight

Molecule: O=C1C[C@@](O)(C(=O)O)[C@@H](C(=O)O)O1 [lactone derivative]
- affinity of the enzyme compared with HCA (citrate lyase; by comparison with HCA): clear lower affinity

Molecule: C[N+](C)(C)C[C@H](O)CC(=O)[O-].O=C([O-])CC(O)(CC(=O)[O-])C(=O)[O-].O=C([O-])CC(O)(CC(=O)[O-])C(=O)[O-].[Mg+2].[Mg+2].[Mg+2] [example 1, L-Carnitine-Magnesium Citrate]
- weight gain (moisture uptake from the air) [1, 5]: 2.0 % by weight
- weight gain (moisture uptake from the air) [1, 6]: 2.2 % by weight
- weight gain (moisture uptake from the air) [1, 7]: 4.6 % by weight
- weight gain (moisture uptake from the air) [1, 8]: 4.4 % by weight
- weight gain (moisture uptake from the air) [1, 9]: 5.2 % by weight
- weight gain (moisture uptake from the air) [1, 10]: 5.1 % by weight

Molecule: C[N+](C)(C)C[C@H](O)CC(=O)[O-].O=C([O-])CC(O)(CC(=O)[O-])C(=O)[O-].O=C([O-])CC(O)(CC(=O)[O-])C(=O)[O-].[Mg+2].[Mg+2].[Mg+2] [carnitine-Mg citrate, L-carnitine-magnesium citrate]
- moisture uptake based on carnitine content (free base) ([1]; 56% relative humidity, based on amount of carnitine in the mixture): not more than 40 % by weight
- moisture uptake ([1]; after 48 h at 56% relative humidity): not more than 7 % by weight
- moisture uptake ([1]; after storage for 330 h at 56% relative humidity): not more than 7 % by weight

Molecule: O=C(O)CC(O)(C(=O)O)C(O)C(=O)O (stereo not shown) [HCA, Hydroxycitric acid]
- affinity of the enzyme relative to natural substrate citric acid (citrate lyase; fold higher than for citric acid): more than 100 times
